This is an account of results in US11090319B2, “Therapeutic uses of pharmaceutical compositions comprising cyclic boronic acid ester derivatives” (Melinta Subsidiary Corp., priority 2010, dated 2021).

In assay [1] the target is various β-lactamases (bacterial lysates) (Escherichia coli, UniProt A0A649V088). The experiment in a line: biochemical. The assay is classed as biochemical. The conditions noted are these: read-out: AZT IC50 KP1005 CTX-M-14.
For assay [2], the system named is KP1008 Klebsiella pneumoniae KPC-2. The assay can be described thus: Checkerboard assay, biapenem potentiation. The following applies: Biapenem MIC 8-fold; KP1008 KPC-2 class A.
The test system of assay [3] is ECL1004 Enterobacter cloacae NMC-A. The experiment in a line: Checkerboard assay, biapenem potentiation. The conditions noted are these: Biapenem MIC 8-fold; ECL1004 NMC-A class A.
Assay [4] deals with SHV-5, lysate of ec308 (Escherichia coli, UniProt P0AD63, E235K/G234S). The assay can be described thus: Inhibition of ceftazidime hydrolysis by bacterial lysate.
Assay [5] concerns SM1000 Serratia marcescens SME-2. The experiment in a line: Checkerboard assay, biapenem potentiation. The conditions noted are these: Biapenem MIC 8-fold; SM1000 SME-2 class A.
For assay [6], the target named is KPC-3, lysate of EC1007 (Klebsiella pneumoniae, UniProt Q9F663, H272Y). The assay can be described thus: Inhibition of ceftazidime hydrolysis by bacterial lysate.
Assay [7] deals with various β-lactamases (bacterial lysates) (Escherichia coli, UniProt Q53TY8). The assay can be described thus: Inhibition of nitrocefin cleavage by bacterial lysates, Table 11. In kind it is biochemical. The following applies: lysate EC1010 pAmpC (CMY-6), read-out: NCF IC50 EC1010 pAmpC (CMY-6).
In assay [8] the test system is strains expressing class A ESBLs. In kind it is cell-based. On the procedure:
Selected β-lactamase inhibitors were also tested for their ability to potentiate the monobactam tigemonam.

For assay [9], the system named is EC1007 Escherichia coli KPC-3. The assay can be described thus: Checkerboard assay, biapenem potentiation. The following applies: Biapenem MIC 8-fold; EC1007 KPC-3 class A.

Usually IC50 stands for the point on the concentration scale where inhibition reaches its midpoint. `CC(=O)N[C@H]1CCC(CC(=O)O)OB1O` (stereo partly drawn) [Compound 3, 2-((3R)-3-acetamido-2-hydroxy-1,2-oxaborinan-6-yl)acetic acid]: the half-inhibitory concentration (IC50) in assay [1] is under 2.33 µM; in assay [4], over 4.65 µM. For the same compound, the MPC8 entry in [2] was “X (MPC8 of less than 0.16 μg/mL)”; in [3] it was “X (MPC8 of less than 0.16 μg/mL)”; in assay [5] it was “Y (MPC8 of 0.16 μg/mL to 1 μg/mL)”.

Consider `O=C(O)CC1CC[C@H](NC(=O)C2CC2)B(O)O1` (stereo partly drawn) [Compound 4, 2-((3R)-3-(cyclopropanecarboxamido)-2-hydroxy-1,2-oxaborinan-6-yl)acetic acid], for which the IC50 in assay [6] was under 0.415 µM; in [1], under 2.07 µM; in assay [4] it was over 4.15 µM; in [7], over 8.3 µM. For the same compound, the MPC8 entry in assay [2], in assay [3] and in assay [5] was “X (MPC8 of less than 0.16 μg/mL)” throughout.

Take `O=C(O)C[C@@H]1CC[C@H](NC(=O)Cc2cccs2)B(O)O1` [Compound 5, 2-((3R,6S)-2-hydroxy-3-(2-(thiophen-2-yl)acetamido)-1,2-oxaborinan-6-yl)acetic acid]: in [8], the “MPC4 CTX-M-14 KP1005” value is “Z (key: X: MPC@4 of less than 2 μg/mL; Y: MPC@4 of 2 μg/mL to 10 μg/mL; Z: MPC@4 of greater than 10 μg/mL)”, the “MPC4 CTX-M-15 KP1009” value is listed as “Z (key: X: MPC@4 of less than 2 μg/mL; Y: MPC@4 of 2 μg/mL to 10 μg/mL; Z: MPC@4 of greater than 10 μg/mL)”, the “MPC4 SHV-5 ec308” value was “Z (key: X: MPC@4 of less than 2 μg/mL; Y: MPC@4 of 2 μg/mL to 10 μg/mL; Z: MPC@4 of greater than 10 μg/mL)” and the “MPC4 SHV-12 KP1010” value is given as “Z (key: X: MPC@4 of less than 2 μg/mL; Y: MPC@4 of 2 μg/mL to 10 μg/mL; Z: MPC@4 of greater than 10 μg/mL)”. Besides, in [8], the “MPC4 SHV-18 KP1012” value is listed as “Z (key: X: MPC@4 of less than 2 μg/mL; Y: MPC@4 of 2 μg/mL to 10 μg/mL; Z: MPC@4 of greater than 10 μg/mL)”, the “MPC4 TEM-10 EC1009” value is on record as “Z (key: X: MPC@4 of less than 2 μg/mL; Y: MPC@4 of 2 μg/mL to 10 μg/mL; Z: MPC@4 of greater than 10 μg/mL)”, the “MPC4 TEM-10 ec302” value is “Z (key: X: MPC@4 of less than 2 μg/mL; Y: MPC@4 of 2 μg/mL to 10 μg/mL; Z: MPC@4 of greater than 10 μg/mL)” and the “MPC4 TEM-26 ec304” value is given as “Z (key: X: MPC@4 of less than 2 μg/mL; Y: MPC@4 of 2 μg/mL to 10 μg/mL; Z: MPC@4 of greater than 10 μg/mL)”. Further, the IC50 in assay [1] is under 1.68 µM. Moreover, the MPC8 result in assay [9] is reported as “X (MPC8 of less than 0.16 μg/mL)”. In addition, in assay [3], the MPC8 entry was “Y (MPC8 of 0.16 μg/mL to 1 μg/mL)”. The compound further displayed a half-inhibitory concentration (IC50) in assay [4] of over 3.37 µM. Besides, the MPC8 entry in [5] is “Y (MPC8 of 0.16 μg/mL to 1 μg/mL)”. Besides, the IC50 in assay [7] was over 6.73 µM.

For `O=C(O)C[C@@H]1CC[C@H](NC(=O)Cc2ccccc2)B(O)O1` [Compound 6, 2-((3R,6S)-2-hydroxy-3-(2-phenylacetamido)-1,2-oxaborinan-6-yl)acetic acid], the concentration for half-maximal inhibition (IC50) in assay [1] was under 1.72 µM; in [4], over 3.44 µM; in assay [7], over 6.87 µM. The MPC8 entry in assay [9] is “X (MPC8 of less than 0.16 μg/mL)”; in assay [3] it was “Y (MPC8 of 0.16 μg/mL to 1 μg/mL)”; in assay [5] it was “Y (MPC8 of 0.16 μg/mL to 1 μg/mL)”.

Take `Cl.N[C@H]1CCC(CC(=O)O)OB1O` (stereo partly drawn) [Compound 7, 2-((3R)-3-amino-2-hydroxy-1,2-oxaborinan-6-yl)acetic acid hydrochloride]: the IC50 in assay [6] and in assay [4] was over 4.77 µM each time.
